Results published in publication PMC10604720, “Unraveling the Mechanism of Epichaperome Modulation by Zelavespib: Biochemical Insights on Target Occupancy and Extended Residence Time at the Site of Action” (Biomedicines, 2023).

Assays:
[1] = tested on: chaperone assemblies; experiment: Kinetics of chaperone-zelavespib assembly taken from Phase 1 clearance; parameters: species or system mouse; conditions: in vivo, fast off-rate
Method: (§1) Figure 1 Biodistribution of zelavespib in MDA-MB-468 tumor-bearing mice. (a) Biodistribution of [^124I]-Zelavespib in MDA-MB-468 tumors, organs, tissues, and plasma as per ref. [32]. Data are presented as means ± s.d., five mice per time point. Curves for blood, lung, heart, muscle, bone, and brain were fitted using a one-phase decay equation, and kinetics of zelavespib clearance were determined. Tumor curve was fitted to a two-phase exponential decay. k, kfast, and kslow are the rate constants. Half-life (T1/2) is computed as ln(2)/k. […] (b) Illustrative schematic showing the distinct binding kinetics of zelavespib to epichaperomes (slow off-rate) and to chaperone assemblies (fast off-rate). The tumor pharmacokinetics profile recorded in the Phase 2 interval may represent a direct reflection of the in vivo kinetics of target–drug unbinding. koff, kinetic rate constant for dissociation of an epichaperome-zelavespib assembly. Rt, retention time. […]

[2] = parameters: method as in PMID 31668946; conditions: whole-body PET imaging, mice; cited from earlier work
[3] = parameters: method as in PMID 28808818; conditions: human patients, no dependency on dose level; cited from earlier work
[4] = Biodistribution / PET pharmacokinetics of [124I]-zelavespib in MDA-MB-468 tumor-bearing mice (data of ref 32, refitted to exponential decay); assay type: in vivo, mouse
Method: Iodine-124 is a ‘non-residualizing’ isotope (i.e., free iodine-124 washes out from cells), and therefore, data derived from positron emission tomography imaging of MDA-MB-468-bearing mice that were administered a tracer amount of [^124I]-PU-AD can be used to determine real-time zelavespib concentrations delivered to tumors. Because positron emission tomography provides information on radioactivity and not molar concentrations, radioactivity data from Pillarsetty et al. were transformed into tumor concentrations to calculate the time-dependent zelavespib concentrations in tumors for an administered dose of 50 mg/kg. The drug concentration (in μM) in the tumor water space, [Drugtumor], at the time t post-administration is therefore: [Drugtumor]t=Drugdose·[Atumor]t/100%·1/W·1×10^6/MW µM where Drugdose is the administered drug dose (in mg), [Atumor]t is the activity concentration (in % injected dose per milliliter, %ID/mL) of the surrogate radiotracer, W is the water space of the tissue (in mL/g), MW is the molecular weight of the drug (i.e., zelavespib), and the factor 1 × 10^6 converts the concentration to μM. For the drug zelavespib and the surrogate radiotracer […] co-injected in a ratio of ~1 to 10,000, the drug itself is essentially the only significant form of the drug–surrogate combination in the tumor. Thus, for a co-administered dose of zelavespib (zelavespibdose in mg) and a tracer amount of [^124I]-PU-AD, the drug concentration in the tumor water space (using an average water space, W = 0.8 mL/g, and the molecular weight MW = 512) is: [Zelavespibtumor]t=Zelavespibdose · [Atumor]t/100%·2.44×10^3 µM
To study the zelavespib–epichaperome interaction in vivo, we selected, for simplicity, an epichaperome-positive tumor model (e.g., subcutaneously xenografted MDA-MB-468 tumors in mice). Using whole-body PET imaging after the injection of ^124I-labeled zelavespib, Pillarsetty et al. reported drug presence in MDA-MB-468 tumors up to 120 h post-single dose administration (~T1/2 = 60 h). Conversely, zelavespib was no longer observed in non-disease, non-metabolizing tissues after ~8 h, clearing rapidly from plasma, paralleled by a similar rapid clearance from normal tissues (i.e., chaperone-positive but epichaperome-negative). In these tumors, a clear relationship between tumor retention, pharmacodynamic effects, and anti-tumor activity was observed, supporting the notion that zelavespib was in residence with its target over the time it resided in these tumors.
These values are very much in agreement with those reported for zelavespib in human patients. […] Contrasting plasma and normal tissues and organs, the distribution of zelavespib in tumors was best fitted using a bi-exponential model. […] The first phase thus reflects the clearance of systemic agent, while the second is attributable to specific tumor retention.
as §1

[5] = MDA-MB-468 tumor-bearing mice, one-phase exponential decay fit of data of ref 32
[6] = MDA-MB-468 tumor, bi-exponential fit, Phase 1: 0 to 8 h, data of ref 32
[7] = MDA-MB-468 tumor, bi-exponential fit, slow terminal clearance phase, data of ref 32

- T1/2, chaperone-zelavespib assembly [1]: ~ 3 h
- half-life (T1/2), bone [4, 5]: 2.84 h
- half-life (T1/2), brain [4, 5]: 2.65 h
- half-life (T1/2), heart [4, 5]: 3.10 h
- half-life (T1/2), lung [4, 5]: 3.37 h
- half-life (T1/2), muscle [4, 5]: 5.03 h
- half-life (T1/2), plasma/blood [4, 5]: 4.38 h
- tumor Phase 1 T1/2 [4, 6]: 2.87 h
- tumor Phase 1 rate constant k (kfast) [4, 6]: 0.241 h⁻¹
- tumor Phase 2 T1/2 [4, 7]: 46.8 h
- tumor Phase 2 rate constant k (kslow) [4, 7]: 0.015 h⁻¹
SMILES: CC(C)NCCCn1c(Sc2cc3c(cc2I)OCO3)nc2c(N)ncnc21 [zelavespib]
- k Phase 1, chaperone-zelavespib assembly [1]: ~ 0.2 h^-1
- T1/2 in MDA-MB-468 tumors [2]: approximately 60 h
- mean terminal half-life (T1/2) in the plasma [3]: 8.4 ± 3.6 h
